Assay results as given in patent publication US9326972B2, “Use of phenylmethimazoles, methimazole derivatives, and tautomeric cyclic thiones for the treatment of autoimmune/inflammatory diseases associated with toll-like receptor overexpression” (Ohio University, priority 2004, dated 2016).

Legend:
ISRE = assay: ISRE-Luc reporter gene in FRTL-5 thyrocytes; assay type: cell-based, rat
Procedure: Cells were co-transfected with ISRE-Luc and pRLTk-Int and then treated without (none) or with Poly I:C (100 μg/ml), LPS (100 ng/ml), IL-1β (10 ng/ml) TNF-α (25 ng/ml), IFN-β (100 U/ml) or IFN-γ (1000 U/ml) in the presence of DMSO (−) or C10 for 6 hours. Data were obtained using the Dual Luciferase Assay system. The effect on the ISRE element is not duplicated by an NF-κB reporter plasmid despite the similarity of the two elements: ([…])5 (SEQ ID NO:3) vs. ([…])5 (SEQ ID NO:4), respectively. Data are representative of multiple experiments.
Plasmids for Reporter Gene Assays. Human IRF-3 was amplified from human cDNA and cloned into pCR 2.1 by the TOPO/TA (Invitrogen, Carlsbad, Calif.) cloning method, and then sequenced. IRF-3 was then excised by EcoRI digestion and subcloned into pCMV-BD (Stratagene, La Jolla, Calif.) for use in transactivation assays. To construct IFN-β-luc the human IFN-β promoter sequence was amplified from human genomic DNA (Clontech, Palo Alto, Calif.)) using Ex Taq™ Polymerase (Takara, Madison, Wis.). The PCR fragment contained human IFN-β promoter sequence from −125 to +34 relative to the transcription start site (+1) and incorporated KpnI and XhoI restriction sites at the 5′ and 3′ ends, respectively. The primers were as follows: hIFN-β (−125) KpnI (5′-[…]-3′) (SEQ ID NO:9) and hIFN-β (+34) XhoI (5′-[…]-3′). […]

Stat1 = Stat1 phosphorylation in Influenza A infected FRTL-5 thyrocytes (Western blot); assay type: cell-based, rat
Procedure: FIG. 6. Phenylmethimazole (C10) has no effect on the ability of Poly (I:C) or LPS to increase formation of the p50/p65 heterodimer complex of […] (A), but can inhibit the Influenza A induced activation of Stat1 phosphorylation in FRTL-5 thyrocytes (B). In (A), EMSA were performed using nuclear extracts from cells which were treated with nothing (none), Poly (I:C) (100 μg/ml), LPS (100 ng/ml), in the presence of DMSO, C10, or MMI for 6 hours. Probe was the NF-κβ consensus oligonucleotide. The p65/p50 and p50/p50 complexes are indicated and were identified as in FIG. 2B by antibody inhibition or supershifts of the p50 or p65 components of the induced complexes. In (B), cells were infected with Influenza A for 24 hours and then DMSO or C10 were added to the medium for 6 hours. In each, 25 μg of nuclear extracts were used in Western blots performed to detect Stat1 PY701. Blots were then stripped and reprobed for unphosphorylated Stat1. The first lane is a non infected control (−).
Immunoprecipitation and Western Blot Analysis. Whole cell lysates were prepared in lysis buffer (10 mM Tris-HCl (pH 7.5), 150 mM NaCl, 1% NP-40) containing protease inhibitors. Nuclear extracts were prepared using the NE-PER extraction reagents with protease inhibitors stated below (Pierce Chemical Co., Rockford, Ill.). […]

NF-κB p65/p50 complex = assay: EMSA of NF-κB p65/p50 complex formation in FRTL-5 thyrocytes; assay type: cell-based, rat; details: FRTL-5, EMSA, 6 hours
[1] = tested on: human aortic endothelial cells (HAEC); details: cited from earlier work

Cn1c(-c2ccccc2)cnc1S [Compound C10, 5-Phenylmethimazole]
ISRE activation by poly (I:C), LPS, IL-1β, TNF-α, IFN-β and IFN-γ (ISRE-Luc) (ISRE; FRTL-5, 6 hours): effective inhibitor
ISRE-Luc Relative Luciferase Activity % of Control (±15%), +C10 (ISRE; FRTL-5, Ligand None, 6 hours): 100 % of Control
virus- or IFN-β-stimulated Stat1 phosphorylation (PY701) (Stat1; FRTL-5, Influenza A 24 hours then C10 6 hours): profound inhibitor
Stat1 serine phosphorylation at residue 727 (Stat1; FRTL-5, Influenza A virus 24 hours, 1 mM C10): reduce
effect on Poly (I:C)- or LPS-increased p65/p50 complex formation (NF-κB p65/p50 complex): did not have any significant effect
cytokine-induced HAEC expression of VCAM-1 (protein and mRNA) [1]: strongly inhibits
monocytic cell adhesion to cytokine inflamed HAEC under in vitro flow conditions [1]: inhibits
E-selectin expression ([1]; cytokine-induced, HAEC): modest effect
ICAM-1 expression ([1]; cytokine-induced, HAEC): very little effect
